Our source for the T/C values is PubChem BioAssay AID192 (DTP/NCI, 2004).

SMILES strings stand for the structures. Several values for one entry are separate records, joined by “and”; a condition that tells them apart may be missing. Equal entries are not always repeated. Toxic doses and inconclusive results are not listed.

The subject of the assay is BDF1 mice, B16 melanoma ip, median survival T/C. The assay is described as follows: NCI In Vivo Anticancer Drug Screen. Data for tumor model B16 Melanoma (intraperitoneal) in B6D2F1 (BDF1) mice. The note with it: endpoint: median survival time, higher = longer survival. Summed up: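 Mice with transplantable tumors; drug vs vehicle groups; endpoint survival or tumor size; value = T/C.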

The mark [1] stands for this setting: dose: 100.0 mg/kg/injection, schedule: Q01DX009 (ip), vehicle: Klucel (hydroxypropylcellulose) (HPC).
Setting [2] is: dose: 200.0 mg/kg/injection, schedule: Q01DX009 (ip), vehicle: Klucel (hydroxypropylcellulose) (HPC).
[3] abbreviates: dose: 400.0 mg/kg/injection, schedule: Q01DX009 (ip), vehicle: Klucel (hydroxypropylcellulose) (HPC).
[4] abbreviates: dose: 6.25 mg/kg/injection, schedule: Q01DX009 (ip), vehicle: Klucel (hydroxypropylcellulose) (HPC).
Setting [5] is: dose: 12.5 mg/kg/injection, schedule: Q01DX009 (ip), vehicle: Klucel (hydroxypropylcellulose) (HPC).
Where [6] appears, read: dose: 25.0 mg/kg/injection, schedule: Q01DX009 (ip), vehicle: Klucel (hydroxypropylcellulose) (HPC).
The mark [7] stands for this setting: dose: 50.0 mg/kg/injection, schedule: Q01DX009 (ip), vehicle: Klucel (hydroxypropylcellulose) (HPC).
Setting [8] is: dose: 25.0 mg/kg/injection, schedule: Q01DX009 (ip), vehicle: saline with Tween-80.
Where [9] appears, read: dose: 50.0 mg/kg/injection, schedule: Q01DX009 (ip), vehicle: saline with Tween-80.
The mark [10] stands for this setting: dose: 100.0 mg/kg/injection, schedule: Q01DX009 (ip), vehicle: saline with Tween-80.

For the compound `O=S(=O)(O)CNc1cc(Cl)cc(Cl)c1`, the T/C under setting [1] was 108 % of control and the T/C under setting [2] is 94 % of control.
As to `O=[N+]([O-])c1cccc(N=P(c2ccccc2)(c2ccccc2)c2ccccc2)c1`, the T/C is, setting by setting: under setting [1], 97 % of control; under setting [2], 101 % of control; under setting [3], 94 % of control.
For the compound `OC(C1CO1)(C(F)(F)F)C(F)(F)F` (configuration not stated), the T/C (dose: 50.0 mg/kg/injection, schedule: Q01DX009 (ip), vehicle: saline) is 92 % of control; the T/C (dose: 100.0 mg/kg/injection, schedule: Q01DX009 (ip), vehicle: saline) is 90 % of control; the T/C (dose: 200.0 mg/kg/injection, schedule: Q01DX009 (ip), vehicle: saline) was 92 % of control.
As for `CO[C@H]1C[C@H](O[C@H]2CC[C@]3(C=O)[C@H]4CC[C@]5(C)[C@@H](C6=CC(=O)OC6)CC[C@]5(O)[C@@H]4CC[C@]3(O)C2)O[C@H](C)[C@H]1O[C@@H]1O[C@H](CO)[C@@H](O)[C@H](O)[C@H]1O`, the T/C by setting is: (dose: 0.25 mg/kg/injection, schedule: Q01DX009 (ip), vehicle: saline) 105 % of control; (dose: 0.25 mg/kg/injection, schedule: Q04DX003 (ip), vehicle: saline) 100 % of control; (dose: 0.5 mg/kg/injection, schedule: Q01DX009 (ip), vehicle: saline) 100 % of control; (dose: 0.5 mg/kg/injection, schedule: Q04DX003 (ip), vehicle: saline) 102 % of control; (dose: 1.0 mg/kg/injection, schedule: Q01DX009 (ip), vehicle: saline) 100 % of control; (dose: 1.0 mg/kg/injection, schedule: Q04DX003 (ip), vehicle: saline) 105 % of control. Further, under “dose: 2.0 mg/kg/injection, schedule: Q01DX009 (ip), vehicle: saline”, the T/C is 94 % of control.
As to `N#CSc1ccc(S(N)(=O)=O)cc1`, the T/C is 100 % of control under setting [4] and 103 % of control under setting [5].
As to `COc1ccc2c(Cc3ccccc3)cncc2c1O`, the T/C reads like this: under setting [4], 97 % of control; under setting [5], 99 % of control; under setting [6], 102 % of control; under setting [7], 104 % of control.
Take `CCCCCOc1ccc(C(=O)CC(=O)OCC)cc1`: the T/C runs as follows: under setting [1], 93 % of control; under setting [2], 106 % of control; under setting [3], 93 % of control.
Regarding `CN(C)/N=C\c1ccccc1Cl`, the T/C is, setting by setting: (dose: 50.0 mg/kg/injection, schedule: Q04DX003 (ip), vehicle: saline with Tween-80) 104 % of control; (dose: 100.0 mg/kg/injection, schedule: Q04DX003 (ip), vehicle: saline with Tween-80) 102 % of control.
With `CSc1nc2ccccc2s1`, the T/C is 106 % of control under setting [7] and 115 % of control under setting [1].
As for `CCNCc1cc(Nc2nc(NC3CCC(N(C)C)CC3)c3ccccc3n2)ccc1OC` (configuration not stated), the T/C reads like this: (dose: 2.5 mg/kg/injection, schedule: Q01DX009 (ip), vehicle: saline) 105 % of control; (dose: 5.0 mg/kg/injection, schedule: Q01DX009 (ip), vehicle: saline) 103 % of control; (dose: 10.0 mg/kg/injection, schedule: Q01DX009 (ip), vehicle: saline) 114 % of control; (dose: 20.0 mg/kg/injection, schedule: Q01DX009 (ip), vehicle: saline) 122 % of control; (dose: 40.0 mg/kg/injection, schedule: Q01DX009 (ip), vehicle: saline) 112 % of control.
Take `CS(=O)(=O)OCCN(CCOS(C)(=O)=O)c1ccc(/C=N/Nc2ncnc3nc[nH]c23)cc1`: the T/C by setting is: under setting [8], 115 % of control; under setting [9], 110 % of control; under setting [10], 105 % of control and 113 % of control; (dose: 400.0 mg/kg/injection, schedule: Q04DX003 (ip), vehicle: saline with Tween-80) 91 % of control and 121 % of control.
In the case of `O=C(Nc1ccccc1)Nc1cccc(Cl)c1`, the T/C runs as follows: under setting [9], 100 % of control; under setting [10], 98 % of control; (dose: 200.0 mg/kg/injection, schedule: Q01DX009 (ip), vehicle: saline with Tween-80) 96 % of control.
As for `CC(=O)NC(=O)Nc1ccccc1`, the T/C was 97 % of control (dose: 100.0 mg/kg/injection, schedule: Q04DX003 (ip), vehicle: Klucel (hydroxypropylcellulose) (HPC)); 95 % of control (dose: 200.0 mg/kg/injection, schedule: Q04DX003 (ip), vehicle: Klucel (hydroxypropylcellulose) (HPC)); 100 % of control (dose: 400.0 mg/kg/injection, schedule: Q04DX003 (ip), vehicle: Klucel (hydroxypropylcellulose) (HPC)).
With `Cc1cc(N)c2cc(NC(=O)CCCCCCCCC(=O)Nc3ccc4nc(C)cc(N)c4c3)ccc2n1`, the T/C by setting is: (dose: 3.12 mg/kg/injection, schedule: Q01DX009 (ip), vehicle: Klucel (hydroxypropylcellulose) (HPC)) 89 % of control; under setting [4], 87 % of control and 91 % of control; under setting [5], 100 % of control; under setting [6], 95 % of control and 107 % of control; under setting [7], 95 % of control and 99 % of control.
For `Cc1cc(Cl)ccc1NC(=O)c1ccccc1`, the T/C reads like this: under setting [1], 103 % of control; under setting [2], 99 % of control; under setting [3], 100 % of control.
Turning to `COc1ccc(NC(=O)Nc2ccccc2F)cc1`, the T/C is 97 % of control under setting [1] and 97 % of control under setting [2].
Turning to `CC1C2Cc3ccc(O)cc3C1(C)CCN2CC1CC1` (configuration not stated), the T/C runs as follows: under setting [6], 100 % of control; under setting [7], 94 % of control; under setting [1], 95 % of control.
For the compound `O=C(Nc1ccc2c(c1)OCO2)O/N=C1\C(=O)Nc2ccccc21`, the T/C was 100 % of control (dose: 16.5 mg/kg/injection, schedule: Q04DX003 (ip), vehicle: saline with Tween-80); 109 % of control under setting [8]; 100 % of control (dose: 25.0 mg/kg/injection, schedule: Q04DX003 (ip), vehicle: saline with Tween-80); 153 % of control (dose: 25.0 mg/kg/injection, schedule: Q04DX003 (ip), vehicle: saline); 95 % of control (dose: 37.5 mg/kg/injection, schedule: Q04DX003 (ip), vehicle: saline with Tween-80); 104 % of control under setting [9]. For the same compound, the T/C under setting [10] is 100 % of control.
For `CCN(C(=O)c1ccc(C(=O)N(CC)c2ccccc2)cc1)c1ccccc1`, the T/C under setting [7] is 119 % of control, the T/C under setting [1] is 114 % of control and the T/C under setting [2] was 111 % of control.
As for `CC(=O)C1=C(O)C2(O)C(=O)c3c(c(C)c4ccc(C)c(O)c4c3O)CC2C(N)C1=O` (configuration not stated), the T/C is 100 % of control (dose: 1.56 mg/kg/injection, schedule: Q01DX009 (ip), vehicle: saline with Tween-80); 95 % of control (dose: 3.13 mg/kg/injection, schedule: Q01DX009 (ip), vehicle: saline with Tween-80); 103 % of control (dose: 3.75 mg/kg/injection, schedule: Q01DX009 (ip), vehicle: saline + alcohol); 100 % of control (dose: 6.25 mg/kg/injection, schedule: Q01DX009 (ip), vehicle: saline with Tween-80); 105 % of control (dose: 7.5 mg/kg/injection, schedule: Q01DX009 (ip), vehicle: saline + alcohol); 114 % of control (dose: 15.0 mg/kg/injection, schedule: Q01DX009 (ip), vehicle: saline + alcohol).
